Results reported in publication PMC4552634, “A New Set of Chemical Starting Points with Plasmodium falciparum Transmission-Blocking Potential for Antimalarial Drug Discovery” (PLoS ONE, 2015).
Like-named read-outs stand apart in the source and are kept apart here.

Legend:
HepG2 cells = experiment: Cytotoxicity in HepG2 cells (intracellular ATP, ATPlite, 48 h); assay type: cell-based, human; conditions: HepG2 cells; IC50 per ratio column head; unit inferred
[1] = test system: P. falciparum stage V gametocytes; experiment: Gametocytocidal ATP bioluminescence assay (single point 5 μM and 1 μM, dose-response); assay type: cell-based, Plasmodium falciparum; conditions: for Ratio IC50 HepG2/IC50 P. falciparum: IC50 HepG2 divided by IC50 P. falciparum gametocytes
[2] = test system: P. falciparum asexual stages; conditions: asexual stages; TCAMS data; read-out: IC50 asexual; cited from earlier work
[3] = test system: luciferase reaction (BacTiter-Glo); experiment: Interference assay (inhibition of the BacTiter-Glo luciferase reaction); assay type: biochemical; parameters: concentration or dose not given beside the values; conditions: ATP interference assay
Description: To discard possible false-positive results, we performed an interference assay in parallel. […] […]. The ATP solution was made by dissolving ATP powder (ATP standard from the ATPlite 1 step assay kit, reference 6016731, Perkin Elmer) in culture medium. The positive control used was the Luciferase Inhibitor I Calbiochem (Merck, 119113) at 100 μM.

[4] = P. falciparum gametocytes, average, read-out: IC50 Pf Gametocytes average, IC50 (µM) average
[5] = sexual stages (gametocytes), dose-response, read-out: IC50 sexual

SMILES	% Control luminiscence [3]	IC50 (HepG2 cells)	Ratio IC50 HepG2/IC50 P. falciparum [1]	IC50 [1, 4]	IC50 [1, 5]	IC50 [2]
Cc1cccc2[nH]cc(C3CCN(CC4CCC(NC(=O)/C=C/c5ccc(Cl)c(Cl)c5)CC4)CC3)c12 (stereo not drawn) [TCMDC-140137]	100%	2950 nM	2	1.45 µM	1.45 µM	163 nM
CN(CCCNCc1cccc2ccccc12)CCCNCc1cccc2ccccc12 [TCMDC-137905]	100%	5720 nM	25	0.23 µM	–	722 nM
CCCOc1ccc(CCNCCCCNCCc2ccc(OCCC)c3ccccc23)c2ccccc12 [TCMDC-137952]	100%	2600 nM	31	0.08 µM	0.083 µM	917 nM
COc1ccc(-c2cnn3ccc(Nc4cc(OC)c(OC)c(OC)c4)nc23)cc1OC [TCMDC-134383]	100%	12900 nM	8	1.62 µM	1.62 µM	650 nM
C=CCNC(CCCCC)c1ccc(OCCOc2ccc(C(CCCCC)NCC=C)cc2)cc1 (stereo not drawn) [TCMDC-137483]	100%	5800 nM	6.41	0.91 µM	0.905 µM	567 nM
CC(Cc1ccc(C(=O)Nc2ccc(CC(C)NCCc3cccc(Cl)c3)cc2)cc1)NCCc1ccc(C(F)(F)F)cc1 (stereo not drawn) [TCMDC-139790]	100%	3300 nM	11	0.31 µM	0.307 µM	570 nM
CC(C)CNCc1ccc(-c2cccc(CN(CCN(C)C)C(=O)CCC3CCCC3)c2)cc1 [TCMDC-140553]	100%	5500 nM	10	0.54 µM	–	809 nM

More lines, main results first:

% Control luminiscence [3]	SMILES	IC50 (HepG2 cells)	Ratio IC50 HepG2/IC50 P. falciparum [1]	IC50 [1, 4]	IC50 [1, 5]	IC50 [2]
98%	CS(=O)(=O)CCNCc1nc(-c2ccc3c(=O)[nH]cnc3c2)cs1 [TCMDC-138539]	4200 nM	1.57	2.68 µM	–	1010 nM
97%	O=C(NCCCCN1CCC(c2ccc3c(c2OCCO)CCCC3)CC1)c1ccc2oc(-c3ccc(C(F)(F)F)cc3)cc2c1 [TCMDC-138771]	6590 nM	10	0.63 µM	–	340 nM
100%	CN1CCN(CCNc2c3ccccc3nc3c2ccc2ccccc23)CC1 [TCMDC-137723]	6600 nM	17	0.39 µM	0.387 µM	606 nM
100%	CN(C)Cc1ccc(-c2cccc(Nc3nccc(NCC(O)c4ccccc4)n3)c2)cc1 (stereo not drawn) [TCMDC-136467]	5870 nM	6.52	0.9 µM	–	373 nM
95%	CN1CCN(CC2(Nc3nccc(NCCc4cn(C)c5ccccc45)n3)CCCCC2)CC1 [TCMDC-135122]	6940 nM	10	0.7 µM	0.697 µM	1810 nM
96%	CC(C)CNCc1cccc(-c2cccc(CN(CCCN3CCN(C)CC3)C(=O)NC3CCCCC3)c2)c1 [TCMDC-140633]	16800 nM	9	1.78 µM	1.78 µM	761 nM
98%	Cc1cccc(-c2nc(Nc3ccncc3)c3cc(N(C)C)ccc3n2)n1 [TCMDC-135308]	> 25000 nM	>9	2.66 µM	–	710 nM
100%	Nc1ncc(-c2ccc3nccc(-c4ccncc4)c3c2)cc1S(=O)(=O)N1CCCCC1 [TCMDC-134265]	> 25000 nM	>12	2.07 µM	2.07 µM	581 nM
